Patent publication US8378104B2 (OSI Pharmaceuticals, LLC, priority 2010, dated 2013)
pIC50: −log10 of the molar value. Structures can show the parent of a compound that is named as a salt.

What was measured:
TAK1-TAB1 fusion protein = target: T1, TAK1-TAB1 fusion protein (Homo sapiens, UniProt O43318); assay: TAK1 biochemical assay (AlphaScreen, GST-MAP2K7 substrate); conditions: TAK1-TAB1 fusion protein, GST-MAP2K7 substrate; read-out: mean TAK1 IC50 (Col. A)
T1 construct: purchased Carna
T1 sequence (O43318 with tags, fused parts or gaps limits assumed): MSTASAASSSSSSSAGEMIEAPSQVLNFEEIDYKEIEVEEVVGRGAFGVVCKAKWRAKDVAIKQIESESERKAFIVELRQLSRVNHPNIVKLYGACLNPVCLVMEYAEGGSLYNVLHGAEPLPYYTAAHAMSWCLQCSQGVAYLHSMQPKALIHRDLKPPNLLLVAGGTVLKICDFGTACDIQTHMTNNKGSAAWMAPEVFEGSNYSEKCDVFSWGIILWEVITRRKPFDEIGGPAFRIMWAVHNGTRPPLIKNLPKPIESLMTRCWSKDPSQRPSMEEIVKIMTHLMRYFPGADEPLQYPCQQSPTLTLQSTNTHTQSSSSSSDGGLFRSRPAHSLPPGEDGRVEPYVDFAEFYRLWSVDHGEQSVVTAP

pJNK in HCT-116 cells = assay: Phospho-JNK (Thr183/Tyr185) Meso Scale ELISA assay, TNFα-stimulated HCT-116 cells; format: cell-based; conditions: Homo sapiens, read-out: mean HCT-116 pJNK ELISA IC50 (Col. B)
Outline: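 Meso Scale ELISA read of phospho-JNK (Thr183/Tyr185) in lysed HCT-116 cells. Cells were serum-reduced to 1% FCS for 2 hours, exposed to test drug for 4 hrs at 37° C, then given 10 ng/mL TNFα (final) for 10 minutes before lysis.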

CC(=O)N1CCC(n2cc(-c3cnc(N)c4oc(-c5csc6c(F)nccc56)cc34)cn2)CC1 [Example 256, 1-(4-{4-[7-amino-2-(7-fluorothieno[2,3-c]pyridin-3-yl)furo[2,3-c]pyridin-4-yl]-1H-pyrazol-1-yl}piperidin-1-yl)ethanone trifluoroacetic acid salt]
pIC50 (TAK1-TAB1 fusion protein): 6.00 to 7.00
pIC50 (pJNK in HCT-116 cells): 6.00 to 7.00

Nc1ncc(-c2cnn([C@H]3CC[C@H](O)CC3)c2)c2c(Cl)c(-c3cccc4ncsc34)oc12 [Example 288, trans-4-{4-[7-amino-2-(1,3-benzothiazol-7-yl)-3-chlorofuro[2,3-c]pyridin-4-yl]-1H-pyrazol-1-yl}cyclohexanol]
pIC50 (TAK1-TAB1 fusion protein): > 7.00
pIC50 (pJNK in HCT-116 cells): > 7.00

Nc1ncc(-c2cnn([C@H]3CC[C@H](O)CC3)c2)c2cc(-c3cccc4ncsc34)oc12 [Example 231, trans-4-{4-[7-amino-2-(1,3-benzothiazol-7-yl)furo[2,3-c]pyridin-4-yl]-1H-pyrazol-1-yl}cyclohexanol diformate salt]
pIC50 (TAK1-TAB1 fusion protein): > 7.00
pIC50 (pJNK in HCT-116 cells): > 7.00

COc1nn([C@H]2CC[C@H](O)CC2)cc1-c1cnc(N)c2oc(-c3cccc4nnsc34)cc12 [Example 347, trans-4-{4-[7-amino-2-(1,2,3-benzothiadiazol-7-yl)furo[2,3-c]pyridin-4-yl]-3-methoxy-1H-pyrazol-1-yl}cyclohexanol diformate salt]
pIC50 (TAK1-TAB1 fusion protein): > 7.00
pIC50 (pJNK in HCT-116 cells): > 7.00

CN1[C@@H]2CC[C@H]1C[C@H](n1cc(-c3cnc(N)c4oc(-c5csc6cnccc56)cc34)cn1)C2 [Example 328, 4-{1-[(3-exo)-8-methyl-8-azabicyclo[3.2.1]oct-3-yl]-1H-pyrazol-4-yl}-2-(thieno[2,3-c]pyridin-3-yl)furo[2,3-c]pyridin-7-amine]
pIC50 (TAK1-TAB1 fusion protein): > 7.00
pIC50 (pJNK in HCT-116 cells): 6.00 to 7.00

CC(=O)N1CCC(n2cc(-c3cnc(N)c4oc(-c5csc6cnc(O)cc56)cc34)cn2)CC1 [Example 251, 1-(4-{4-[7-amino-2-(5-hydroxythieno[2,3-c]pyridin-3-yl)furo[2,3-c]pyridin-4-yl]-1H-pyrazol-1-yl}piperidin-1-yl)ethanone bis(trifluoroacetate)]
pIC50 (TAK1-TAB1 fusion protein): 6.00 to 7.00
pIC50 (pJNK in HCT-116 cells): 5.00 to 6.00

CCNc1nc2cccc(-c3cc4c(-c5cnn([C@H]6CC[C@H](O)CC6)c5)cnc(N)c4o3)c2s1 [Example 355, trans-4-(4-{7-amino-2-[2-(ethylamino)-1,3-benzothiazol-7-yl]furo[2,3-c]pyridin-4-yl}-1H-pyrazol-1-yl)cyclohexanol Trifluoroacetate (Salt)]
pIC50 (TAK1-TAB1 fusion protein): > 7.00
pIC50 (pJNK in HCT-116 cells): > 7.00

CNc1ncc(-c2cnn([C@H]3CC[C@H](O)CC3)c2)c2cc(-c3csc4cnc(F)cc34)oc12 [Example 283, trans-4-{4-[2-(5-fluorothieno[2,3-c]pyridin-3-yl)-7-(methylamino)furo[2,3-c]pyridin-4-yl]-1H-pyrazol-1-yl}cyclohexanol]
pIC50 (TAK1-TAB1 fusion protein): > 7.00
pIC50 (pJNK in HCT-116 cells): > 7.00

Nc1ncc(-c2cnn(C3CCC(O)C3)c2)c2cc(-c3csc4cnccc34)oc12 (centres unmarked) [Example 306, 3-[4-(7-amino-2-thieno[2,3-c]pyridin-3-yl-furo[2,3-c]pyridin-4-yl)-pyrazol-1-yl]-cyclopentanol]
pIC50 (TAK1-TAB1 fusion protein): > 7.00
pIC50 (pJNK in HCT-116 cells): 6.00 to 7.00

Nc1ncc(-c2cnn([C@@H]3C[C@H]4CC[C@@H](C3)N4C=O)c2)c2cc(-c3csc4cnccc34)oc12 [Example 324, (3-exo)-3-{4-[7-amino-2-(thieno[2,3-c]pyridin-3-yl)furo[2,3-c]pyridin-4-yl]-1H-pyrazol-1-yl}-8-azabicyclo[3.2.1]octane-8-carbaldehyde]
pIC50 (TAK1-TAB1 fusion protein): > 7.00
pIC50 (pJNK in HCT-116 cells): > 7.00

CC(=O)N1CCC(n2cc(-c3cnc(N)c4oc(-c5cccc6ncsc56)cc34)cn2)CC1 [Example 225, 1-(4-{4-[7-amino-2-(1,3-benzothiazol-7-yl)furo[2,3-c]pyridin-4-yl]-1H-pyrazol-1-yl}piperidin-1-yl)ethanone diformate salt]
pIC50 (TAK1-TAB1 fusion protein): > 7.00
pIC50 (pJNK in HCT-116 cells): > 7.00

Nc1ncc(-c2cnn([C@H]3CC[C@H](O)CC3)c2)c2cc(-c3csc4cnc(O)cc34)oc12 [Example 360, 3-{7-Amino-4-[1-(trans-4-hydroxycyclohexyl)-1H-pyrazol-4-yl]furo[2,3-c]pyridin-2-yl}thieno[2,3-c]pyridin-5-ol]
pIC50 (TAK1-TAB1 fusion protein): 6.00 to 7.00
pIC50 (pJNK in HCT-116 cells): 5.00 to 6.00

CC(=O)N1CCC(n2cc(-c3cnc(N)c4oc(-c5csc6cnc(Cl)cc56)cc34)cn2)CC1 [Example 246, 1-(4-{4-[7-amino-2-(5-chlorothieno[2,3-c]pyridin-3-yl)furo[2,3-c]pyridin-4-yl]-1H-pyrazol-1-yl}piperidin-1-yl)ethanone bis(trifluoroacetate)]
pIC50 (TAK1-TAB1 fusion protein): 6.00 to 7.00
pIC50 (pJNK in HCT-116 cells): 6.00 to 7.00

Nc1ncc(-c2cnn([C@@H]3CC[C@@H](O)C3)c2)c2cc(-c3csc4cnccc34)oc12 [Example 308, (1R,3R)-3-[4-(7-amino-2-thieno[2,3-c]pyridin-3-yl-furo[2,3-c]pyridin-4-yl)-pyrazol-1-yl]-cyclopentanol]
pIC50 (TAK1-TAB1 fusion protein): > 7.00
pIC50 (pJNK in HCT-116 cells): 6.00 to 7.00

CC(C)(C)OC(=O)N1[C@@H]2CC[C@H]1C[C@H](n1cc(-c3cnc(N)c4oc(-c5csc6cnccc56)cc34)cn1)C2 [Example 299, tert-butyl (3-exo)-3-{4-[7-amino-2-(thieno[2,3-c]pyridin-3-yl)furo[2,3-c]pyridin-4-yl]-1H-pyrazol-1-yl}-8-azabicyclo[3.2.1]octane-8-carboxylate]
pIC50 (TAK1-TAB1 fusion protein): 6.00 to 7.00
pIC50 (pJNK in HCT-116 cells): 6.00 to 7.00

Nc1ncc(-c2cnn([C@H]3CC[C@H](O)CC3)c2)c2cc(-c3csc4cnncc34)oc12 [Example 268, trans-4-{4-[7-amino-2-(thieno[2,3-d]pyridazin-3-yl)furo[2,3-c]-pyridin-4-yl]-1H-pyrazol-1-yl}cyclohexanol bistrifluoroacetate]
pIC50 (TAK1-TAB1 fusion protein): > 7.00
pIC50 (pJNK in HCT-116 cells): > 7.00

CC(=O)N1CCC(n2cc(-c3cnc(N)c4oc(-c5c(F)ccc6nnsc56)cc34)cn2)CC1 [Example 273, 1-(4-{4-[7-amino-2-(6-fluoro-1,2,3-benzothiadiazol-7-yl)furo[2,3-c]pyridin-4-yl]-1H-pyrazol-1-yl}piperidin-1-yl)ethanone]
pIC50 (TAK1-TAB1 fusion protein): > 7.00
pIC50 (pJNK in HCT-116 cells): 6.00 to 7.00

Nc1ncc(-c2cnn([C@@H]3CCC[C@@H](O)C3)c2)c2cc(-c3csc4cnccc34)oc12 (relative stereo) [Example 309, trans-3-[4-(7-amino-2-thieno[2,3-c]pyridin-3-yl-furo[2,3-c]pyridin-4-yl)-pyrazol-1-yl]-cyclohexanol]
pIC50 (TAK1-TAB1 fusion protein): > 7.00
pIC50 (pJNK in HCT-116 cells): > 7.00

CN(C)C(=O)CCn1cc(-c2cnc(N)c3oc(-c4csc5cnccc45)cc23)cn1 [Example 346, 3-[4-(7-amino-2-thieno[2,3-c]pyridin-3-yl-furo[2,3-c]pyridin-4-yl)-pyrazol-1-yl]-N,N-dimethyl-propionamide]
pIC50 (TAK1-TAB1 fusion protein): 6.00 to 7.00
pIC50 (pJNK in HCT-116 cells): 5.00 to 6.00

CC(=O)N1[C@@H]2CC[C@H]1C[C@H](n1cc(-c3cnc(N)c4oc(-c5csc6cnccc56)cc34)cn1)C2 [Example 325, 1-[(3-exo)-3-{4-[7-amino-2-(thieno[2,3-c]pyridin-3-yl)furo[2,3-c]pyridin-4-yl]-1H-pyrazol-1-yl}-8-azabicyclo[3.2.1]oct-8-yl]ethanone]
pIC50 (TAK1-TAB1 fusion protein): > 7.00
pIC50 (pJNK in HCT-116 cells): > 7.00

CN1[C@@H]2CC[C@H]1C[C@H](n1cc(-c3cnc(N)c4oc(-c5cccc6cnsc56)cc34)cn1)C2 [Example 330, 2-(1,2-benziso-thiazol-7-yl)-4-{1-[(3-exo)-8-methyl-8-azabicyclo[3.2.1]oct-3-yl]-1H-pyrazol-4-yl}furo[2,3-c]pyridin-7-amine]
pIC50 (TAK1-TAB1 fusion protein): > 7.00
pIC50 (pJNK in HCT-116 cells): 6.00 to 7.00

CC(=O)N1CCC(n2cc(-c3cnc(N)c4oc(-c5cn(C)c6cnccc56)cc34)cn2)CC1 [Example 266, 1-(4-{4-[7-amino-2-(1-methyl-1H-pyrrolo[2,3-c]pyridin-3-yl)-furo[2,3-c]pyridin-4-yl]-pyrazol-1-yl}-piperidin-1-yl)-ethanone]
pIC50 (TAK1-TAB1 fusion protein): > 7.00
pIC50 (pJNK in HCT-116 cells): 6.00 to 7.00

Nc1ncc(-c2cnn([C@H]3CC[C@H](O)CC3)c2)c2cc(-c3cccc4sncc34)oc12 [Example 242, trans-4-{4-[7-amino-2-(1,2-benzothiazol-4-yl)furo[2,3-c]pyridin-4-yl]-1H-pyrazol-1-yl}cyclohexanol Diformate Salt]
pIC50 (TAK1-TAB1 fusion protein): > 7.00
pIC50 (pJNK in HCT-116 cells): > 7.00

CC(=O)N1CCC(n2cc(-c3cnc(N)c4oc(-c5csc6cnncc56)cc34)cn2)CC1 [Example 261, 1-(4-{4-[7-amino-2-(thieno[2,3-d]pyridazin-3-yl)furo[2,3-c]pyridin-4-yl]-1H-pyrazol-1-yl}piperidin-1-yl)ethanone diformate]
pIC50 (TAK1-TAB1 fusion protein): > 7.00
pIC50 (pJNK in HCT-116 cells): 6.00 to 7.00

CC(C)(O)C#Cc1sc2cnccc2c1-c1cc2c(-c3cnn([C@H]4CC[C@H](O)CC4)c3)cnc(N)c2o1 [Example 271, trans-4-(4-{7-amino-2-[2-(3-hydroxy-3-methylbut-1-yn-1-yl)thieno[2,3-c]pyridin-3-yl]furo[2,3-c]pyridin-4-yl}-1H-pyrazol-1-yl)cyclohexanol trifluoroacetate]
pIC50 (TAK1-TAB1 fusion protein): 6.00 to 7.00
pIC50 (pJNK in HCT-116 cells): 5.00 to 6.00
